The results in this text go back to PubChem BioAssay (NCI).

Test systems include HL-60(TB) leukemia; HOP-92 NSCLC; SK-MEL-5 melanoma; RXF 393 renal; SW-620 colon; OVCAR-3 ovarian; SK-MEL-28 melanoma; MDA-N; SN12C renal; EKVX NSCLC; KM12 colon; LOX IMVI melanoma; RPMI-8226 leukemia; SK-MEL-2 melanoma; SF-295 CNS; SF-268 CNS; TK-10 renal; A498 renal.
Experiment in all cases: growth of human tumour cells (NCI), 48 h

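Five concentrations, 48 hours, 96-well plates. At the TGI there is no net growth.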

For the molecule `Cc1ccc(NC(=O)c2cc(S(=O)(=O)N3CCNNC3=O)c(S)cc2Cl)cc1`, the TGI is more than 100 µM with HL-60(TB) leukemia; more than 100 µM in the test on HOP-92 NSCLC; more than 100 µM with SK-MEL-5 melanoma; 80.6 µM with RXF 393 renal; more than 100 µM with SW-620 colon; more than 100 µM with OVCAR-3 ovarian. Also, the TGI in the test with SK-MEL-28 melanoma, in the test with MDA-N, with SN12C renal, in the test with EKVX NSCLC, in the test on KM12 colon and in the test on LOX IMVI melanoma was more than 100 µM throughout. The TGI in the test with RPMI-8226 leukemia, in the test on SK-MEL-2 melanoma, with SF-295 CNS, in the test with SF-268 CNS and in the test on TK-10 renal was more than 100 µM throughout.

For `C[C@H]1ON2CCC[C@@H]2[C@@H]1C(=O)N1C2CC3CCC2(CS1(=O)=O)C3(C)C` (stereo not given in full), the TGI with HL-60(TB) leukemia is 26.6 µM; in the test with SK-MEL-5 melanoma, more than 100 µM; with RXF 393 renal it was more than 100 µM; in the test with SW-620 colon, more than 100 µM; in the test with OVCAR-3 ovarian, more than 100 µM; in the test on SK-MEL-28 melanoma it was more than 100 µM. In addition, the TGI with MDA-N, with SN12C renal, with EKVX NSCLC, in the test on KM12 colon, in the test on LOX IMVI melanoma and with A498 renal was more than 100 µM throughout. Also, the TGI in the test with SK-MEL-2 melanoma, with SF-295 CNS, in the test with SF-268 CNS and with TK-10 renal was more than 100 µM in each case.

As to `C=C1C(=O)OC2C3C(=C)[C@@H](OC(C)=O)CC3C(C)=CC(OC(=O)C(C)(O)C(C)OC(C)=O)[C@@H]12` (stereo not given in full), the TGI in the test with HL-60(TB) leukemia stood at 5.57 µM; in the test with SK-MEL-5 melanoma, 20.1 µM; with RXF 393 renal, 17.4 µM; in the test with SW-620 colon, 10.7 µM; with OVCAR-3 ovarian, 21.8 µM; in the test on SK-MEL-28 melanoma, 27.2 µM. Further, the TGI with MDA-N is 18.5 µM; with SN12C renal it was 27.8 µM; in the test with EKVX NSCLC, 30.2 µM; in the test on KM12 colon it was 28.5 µM; in the test on LOX IMVI melanoma it was 19.4 µM; with A498 renal it was 32.3 µM. In addition, the TGI in the test with RPMI-8226 leukemia is 65.7 µM; with SK-MEL-2 melanoma, 20.6 µM; in the test with SF-295 CNS, more than 100 µM; in the test with SF-268 CNS it was 37.9 µM; with TK-10 renal, 18.4 µM.

With `CCC/C(Cl)=N/OC(=O)Nc1cccc(F)c1`, the TGI came out at 3.18 µM in the test with HOP-92 NSCLC; 20.4 µM in the test with SK-MEL-5 melanoma; 20.5 µM with RXF 393 renal; 2.98 µM in the test with SW-620 colon; 6.6 µM in the test with OVCAR-3 ovarian; 9.82 µM in the test with SK-MEL-28 melanoma. Besides, the TGI came out at 23.1 µM in the test with MDA-N; 15.2 µM with SN12C renal; 12.2 µM in the test with EKVX NSCLC; 31.2 µM in the test with KM12 colon; 5.42 µM in the test on LOX IMVI melanoma; 8.08 µM in the test on RPMI-8226 leukemia. Also, the TGI in the test with SK-MEL-2 melanoma is 33.4 µM; in the test with SF-295 CNS it was 32.5 µM; in the test with SF-268 CNS, more than 54.4 µM; with TK-10 renal, more than 19.7 µM.

Turning to `CCOP(=O)(OCC)OC1CC(n2cnc3c(N(CC)CC)ncnc32)OC1CO[Si](C)(C)C(C)(C)C` (stereo not given), the TGI in the test on HL-60(TB) leukemia was more than 100 µM; with SK-MEL-5 melanoma, 31.4 µM; with RXF 393 renal it was 32.3 µM; in the test with SW-620 colon it was 35.2 µM; in the test on OVCAR-3 ovarian, 44.9 µM; with SK-MEL-28 melanoma, 36.3 µM. The TGI was 32 µM in the test on MDA-N; 37.8 µM in the test on SN12C renal; 20.5 µM in the test on EKVX NSCLC; 38.6 µM in the test on KM12 colon; 33.4 µM with LOX IMVI melanoma; more than 100 µM in the test on RPMI-8226 leukemia. Moreover, the TGI in the test on SK-MEL-2 melanoma came to 45.6 µM; in the test on SF-295 CNS, 31 µM; in the test with SF-268 CNS, 31.5 µM; in the test with TK-10 renal it was 33 µM.

With `Nc1nc(SCC(=O)c2ccccc2)nc2nc3c(c(-c4ccccc4)c12)CCCC3`, the TGI with HL-60(TB) leukemia is more than 100 µM; in the test with SK-MEL-5 melanoma, more than 100 µM; in the test with RXF 393 renal it was 70.8 µM; with OVCAR-3 ovarian, 94.5 µM; with SK-MEL-28 melanoma, 61.9 µM; with MDA-N, more than 100 µM. Further, the TGI in the test on SN12C renal is more than 100 µM; in the test with EKVX NSCLC, more than 100 µM; in the test on KM12 colon it was more than 100 µM; in the test on LOX IMVI melanoma it was 61.7 µM; in the test on A498 renal, 42.9 µM; in the test with RPMI-8226 leukemia, more than 100 µM. For the same molecule, the figures for the TGI in the test on SK-MEL-2 melanoma, in the test on SF-268 CNS and with TK-10 renal were more than 100 µM, 61.5 µM and more than 100 µM, respectively.

Take `ClCc1nc2cc(Cl)ccc2o1`: the TGI with HL-60(TB) leukemia is 21.1 µM; in the test with HOP-92 NSCLC, 3.87 µM; in the test on SK-MEL-5 melanoma, 25.8 µM; with RXF 393 renal, 29.8 µM; in the test on SW-620 colon, more than 67.2 µM; in the test with OVCAR-3 ovarian, 4.07 µM. For the same molecule, the TGI with SK-MEL-28 melanoma came to 20.7 µM; with MDA-N, 21.4 µM; in the test with SN12C renal, 20.9 µM; with EKVX NSCLC it was 8.89 µM; in the test on KM12 colon, 28.6 µM; with LOX IMVI melanoma, 6.74 µM. Moreover, the TGI in the test with RPMI-8226 leukemia was 4.07 µM; in the test on SK-MEL-2 melanoma it was 16 µM; with SF-295 CNS it was 37.4 µM; in the test with SF-268 CNS, 26.7 µM; in the test with TK-10 renal it was 7.9 µM.

In the case of `COc1ccc(/C=N/Nc2nc3ccccc3c(=O)n2-c2ccccc2)cc1`, the TGI in the test with HL-60(TB) leukemia, with SK-MEL-5 melanoma, in the test with RXF 393 renal, with SW-620 colon, in the test with OVCAR-3 ovarian and in the test on SK-MEL-28 melanoma was more than 100 µM in each case. Besides, the TGI in the test with MDA-N, in the test with SN12C renal, with EKVX NSCLC, with KM12 colon, with LOX IMVI melanoma and with A498 renal was more than 100 µM throughout. The TGI in the test on SK-MEL-2 melanoma, in the test with SF-295 CNS, in the test on SF-268 CNS and in the test on TK-10 renal was more than 100 µM in each case.
